The text below walks through data of US11471465B2 (priority 2017, dated 2022).

Data set [1] is described as follows: Dissolution testing of the monolayer meloxicam/rizatriptan tablet in 0.01 N HCl, Example 4. Particulars: monolayer tablet of Example 4, 0.01 N HCl, 75 RPM, 37° C. It is filed as physicochemical.
Experimental: Dissolution testing of the tablets in acidic medium (chosen to simulate gastric conditions) was performed by placing the tablets in a 0.01 N HCl solution, at an agitation rate of 75 RPM, and vessel temperature of approximately 37° C.
For data set [2] the following is noted: cited from earlier work.
How the values of data set [3] were obtained: The effect of varying amounts of potassium carbonate (K2CO3) and sodium bicarbonate (NaHCO3) on the pH of acidic media was tested. The acidic media was chosen to simulate gastric conditions. K2CO3 or NaHCO3 was added to 50 mL of a 0.01 N HCl solution (pH 2). The pH of the solution was measured after addition of the K2CO3 or NaHCO3. Deionized water (240 mL) was then added to the mixture and pH was measured again.

Data set [4] relates to moderate and severe migraine. As to the kind of experiment: Phase 3 placebo- and active-controlled trial (MOMENTUM), patients with inadequate response to prior acute treatments, Example 11.
The mark [5] stands for this setting: from 2 hours to 24 hours after dosing.

Like-named read-outs stand apart in the source and are kept apart here.

With `Cc1cnc(NC(=O)C2=C(O)c3ccccc3S(=O)(=O)N2C)s1` [Meloxicam], the percent dissolved is reported as 0% in data set [1] (0 min); 79% in data set [1] (15 min); 92% in data set [1] (30 min); 93% in data set [1] (45 min); 93% in data set [1] (60 min); 93% in data set [1] (90 min). This compound also returned a percent dissolved in data set [1] (120 min) of 94%. In addition, the AUC0-24 of meloxicam result in data set [2] (15 mg IV and intramuscular doses, human beings) was “about 27 μg·hr/mL”. Moreover, the “reported Tmax” value was 60 to 84 min in data set [2] (intramuscular), ~3 min in data set [2] (intravenous bolus) and “approximately 30 minutes” in data set [2] (intravenous infusion).

On to `O=C([O-])O.[Na+]` [NaHCO3, sodium bicarbonate], for which the pH in data set [3] (200 mg NaHCO3, 0.01 N HCl + 240 mL water) is recorded as 5.41; in data set [3] (200 mg NaHCO3 added to 50 mL 0.01 N HCl), 5.28; in data set [3] (300 mg NaHCO3, 0.01 N HCl + 240 mL water) it was 5.89; in data set [3] (300 mg NaHCO3 added to 50 mL 0.01 N HCl), 5.90; in data set [3] (400 mg NaHCO3, 0.01 N HCl + 240 mL water) it was 6.11; in data set [3] (400 mg NaHCO3 added to 50 mL 0.01 N HCl) it was 6.44. Besides, the pH stood at 6.46 in data set [3] (450 mg NaHCO3, 0.01 N HCl + 240 mL water); 6.86 in data set [3] (450 mg NaHCO3 added to 50 mL 0.01 N HCl); 8.33 in data set [3] (500 mg NaHCO3, 0.01 N HCl + 240 mL water); 8.23 in data set [3] (500 mg NaHCO3 added to 50 mL 0.01 N HCl); 8.54 in data set [3] (750 mg NaHCO3, 0.01 N HCl + 240 mL water); 8.30 in data set [3] (750 mg NaHCO3 added to 50 mL 0.01 N HCl). For the same compound, the pH is 8.60 in data set [3] (1000 mg NaHCO3, 0.01 N HCl + 240 mL water) and 8.36 in data set [3] (1000 mg NaHCO3 added to 50 mL 0.01 N HCl).

Turning to `O=C([O-])[O-].[K+].[K+]` [Tablet K2CO3, potassium carbonate], the pH in data set [3] (25 mg K2CO3 added to 50 mL 0.01 N HCl) is 2.84; in data set [3] (35 mg K2CO3 added to 50 mL 0.01 N HCl), 6.29; in data set [3] (45 mg K2CO3 added to 50 mL 0.01 N HCl), 8.05; in data set [3] (50 mg K2CO3 added to 50 mL 0.01 N HCl), 8.29; in data set [3] (100 mg K2CO3 added to 50 mL 0.01 N HCl), 9.43; in data set [3] (200 mg K2CO3, 0.01 N HCl + 240 mL water), 10.27. Moreover, the pH in data set [3] (200 mg K2CO3 added to 50 mL 0.01 N HCl) came to 10.14; in data set [3] (300 mg K2CO3, 0.01 N HCl + 240 mL water), 10.46; in data set [3] (300 mg K2CO3 added to 50 mL 0.01 N HCl), 10.39; in data set [3] (400 mg K2CO3, 0.01 N HCl + 240 mL water), 10.57; in data set [3] (400 mg K2CO3 added to 50 mL 0.01 N HCl), 10.55; in data set [3] (450 mg K2CO3, 0.01 N HCl + 240 mL water), 10.63. Also, the pH in data set [3] (450 mg K2CO3 added to 50 mL 0.01 N HCl) is 10.58.

For Rizatriptan, in data set [1] (0 min), the percent dissolved was 0%. The compound further had a percent dissolved in data set [1] (15 min) of 89%. Besides, the percent dissolved in data set [1] (30 min) is 102%. In data set [1] (45 min), this compound yielded a percent dissolved of 103%. Moreover, the percent dissolved in data set [1] (60 min) was determined as 103%. Also, the percent dissolved in data set [1] (90 min) is listed as 103%. In data set [1] (120 min), the percent dissolved is on record as 103%. Further, the “patients experiencing relapse of pain” value in data set [4] (48-hour period after dosing) amounted to 45.2%. Also, the “probability of experiencing pain relief” value in data set [4] (24 hours after taking) is reported as “approximately 60%”. Besides, in data set [4] ([…] after dosing), the “proportion of patients experiencing pain relief” value was 52.5%. Also, in data set [4] (setting [5]), the “percentage of patients achieving sustained pain freedom” value turned out to be 11.2% and the “percentage of patients experiencing sustained pain relief” value is given as 43.9%. In data set [4] (from 2 hours to 48 hours), the “percentage of patients experiencing sustained pain freedom” value worked out at 8.8% and the “percentage of patients experiencing sustained pain relief” value is 36.5%. In data set [4] (human, in vivo), the “median time to pain relief” value stood at 4 h. For the same compound, in data set [4] (single dose), the “Any Treatment-Emergent Adverse Event, % of subjects” value is “(15.4%)”; the “Any Treatment-Emergent Adverse Event, number of subjects” value came to 67; the “Dizziness, % of subjects” value was “(2.1%)”; the “Dizziness, number of subjects” value was found to be 9. Further, in data set [4] (single dose), the “Nausea, % of subjects” value is recorded as “(4.8%)”; the “Nausea, number of subjects” value came to 21; the “Somnolence, % of subjects” value was “(2.1%)”; the “Somnolence, number of subjects” value was 9. Moreover, in data set [4] (through hour 24 post dose), the “patients who used rescue medication” value is on record as 34.7%.
